Several values for one entry are separate records, joined by “and”; a condition that tells them apart may be missing. Equal entries are not always repeated. Where two headings read alike, the source gives them in different places.
Legend:
LOXL2 = target: T1, LOXL2 (Homo sapiens, UniProt Q9Y4K0); assay: Time-dependent inhibition with pre-incubation 0-240 min (Fig. 2e); assay type: biochemical; details: for remaining activity at 30 µM: log conc -4.52288; for remaining activity at 30 µM / remaining activity at 10 µM / remaining activity at 3.333 µM / remaining activity at 1.111 µM / remaining activity at 0.3704 µM / remaining activity at 0.12346 µM / remaining activity at 0.04115 µM / remaining activity at 0.013717 µM / remaining activity at 0.004572 µM / remaining activity at 0.001524 µM / remaining activity at 0.0005081 µM / remaining activity at 0.0001694 µM: read-out: LOXL2 specific activity; for remaining activity at 10 µM: log conc -5; for remaining activity at 3.333 µM: log conc -5.47712; for remaining activity at 1.111 µM: log conc -5.95424; for remaining activity at 0.3704 µM: log conc -6.43136; for remaining activity at 0.12346 µM: log conc -6.90849; for remaining activity at 0.04115 µM: log conc -7.38561; for remaining activity at 0.013717 µM: log conc -7.86273; for remaining activity at 0.004572 µM: log conc -8.33985; for remaining activity at 0.001524 µM: log conc -8.81697; for remaining activity at 0.0005081 µM: log conc -9.29409; for remaining activity at 0.0001694 µM: log conc -9.77121
T1 sequence (Q9Y4K0 26-774): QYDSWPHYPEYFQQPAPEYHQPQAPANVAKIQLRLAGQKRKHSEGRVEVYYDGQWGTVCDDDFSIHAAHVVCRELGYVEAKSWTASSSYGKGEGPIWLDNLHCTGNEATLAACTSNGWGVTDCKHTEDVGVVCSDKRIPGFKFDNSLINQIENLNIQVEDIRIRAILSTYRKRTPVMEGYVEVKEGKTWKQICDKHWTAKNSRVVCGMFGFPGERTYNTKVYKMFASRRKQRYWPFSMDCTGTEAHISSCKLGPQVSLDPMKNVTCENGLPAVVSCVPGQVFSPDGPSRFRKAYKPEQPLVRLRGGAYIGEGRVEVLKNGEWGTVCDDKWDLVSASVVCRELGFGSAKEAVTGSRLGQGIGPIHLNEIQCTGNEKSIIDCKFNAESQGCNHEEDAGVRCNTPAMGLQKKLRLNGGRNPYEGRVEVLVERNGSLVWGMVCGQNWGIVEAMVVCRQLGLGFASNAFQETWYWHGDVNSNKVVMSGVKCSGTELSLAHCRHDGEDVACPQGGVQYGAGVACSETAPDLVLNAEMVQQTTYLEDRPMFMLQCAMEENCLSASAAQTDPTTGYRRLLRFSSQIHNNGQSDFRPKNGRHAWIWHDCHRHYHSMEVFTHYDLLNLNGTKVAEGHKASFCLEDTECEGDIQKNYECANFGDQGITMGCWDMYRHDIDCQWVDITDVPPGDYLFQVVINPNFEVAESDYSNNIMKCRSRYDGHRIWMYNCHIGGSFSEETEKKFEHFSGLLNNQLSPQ
Text: Data are presented as mean ± s.d. […] Data presented as mean ± s.d. […] Source data TEXT PRINTED IN THE PICTURE: (b) PXS-5505: Recombinant DAO IC50 (nM): >30,000; Recombinant SSAO/VAP1 IC50 (nM): >30,000; Recombinant MAO-A IC50 (nM): >30,000; Recombinant MAO-B IC50 (nM): >30,000 | (f) PXS-5505: Fibroblast LOX IC50 (nM): 4,930; Recombinant LOXL-1 IC50 (nM): 1,590; Recombinant LOXL-2 IC50 (nM): 570; Recombinant LOXL-3 IC50 (nM): 1,800; Recombinant LOXL-4 IC50 (nM): 190
Similar to other fluoroallylamine-based amine oxidase inhibitors, the mode of inhibition is assumed to be a two-step mechanism (Fig. 2c), with PXS-5505 reacting with the unique LTQ cofactor found within the active site. The fluoroallylamine facilitates the formation of a covalent, irreversible bond. […] Furthermore, in jump dilution experiments, there is no significant recovery of activity following rapid dilution (LOXL1 (5 ± 5% recovery, n = 4), LOXL2 (7 ± 1.2% recovery, n = 3) and LOXL3 (11 ± 2% recovery, n = 3)).

[1] = tested on: Lysyl oxidase family activity in aorta; assay: Target engagement: lysyl oxidase family activity in freshly excised aorta, fluorometric activity assay (Fig. 2h); assay type: in vivo, rat; parameters: Lysyl oxidase family activity in freshly excised aorta: unit not given here; details: for Lysyl oxidase family activity in freshly excised aorta: single 30 mg/kg oral, individual samples, 30 mg/kg
Protocol: Data are presented as mean ± s.d. Two-tailed P value determined by unpaired, nonparametric t-test with a Mann–Whitney U-test correction (comparison to PBS control). h, Lysyl oxidase family activity measured in freshly excised aorta determined by fluorometric activity assay n = 19 (PBS), 5 (4–120 h) biological independent samples. Data presented as mean ± s.d. Two-tailed P value determined by unpaired, nonparametric t-test with a Mann–Whitney U-test correction (comparison to PBS control).
To confirm that PXS-5505 inhibits lysyl oxidase family enzymatic activity in tissues, target engagement experiments were performed following a single oral dose (30 mg kg^−1) in rats. […] Lysyl oxidase family activity was measured in two tissues; aorta (core tissue) and ear (peripheral tissue).

Cl.Cl.NC/C=C(\F)CS(=O)(=O)c1cccc2cccnc12.O [PXS-5505, (Z)-3-fluoro-4-(quinolin-8-ylsulfonyl)but-2-en-1-amine dihydrochloride monohydrate]
remaining activity at 30 µM (LOXL2; 0.25 h, pre-incubation 15 min): 1.28%
remaining activity at 10 µM (LOXL2; 0.25 h, pre-incubation 15 min): 4.38%
remaining activity at 3.333 µM (LOXL2; 0.25 h, pre-incubation 15 min): 16%
remaining activity at 1.111 µM (LOXL2; 0.25 h, pre-incubation 15 min): 38.5%
remaining activity at 0.3704 µM (LOXL2; 0.25 h, pre-incubation 15 min): 64%
remaining activity at 0.12346 µM (LOXL2; 0.25 h, pre-incubation 15 min): 86.7%
remaining activity at 0.04115 µM (LOXL2; 0.25 h, pre-incubation 15 min): 93.6%
remaining activity at 0.013717 µM (LOXL2; 0.25 h, pre-incubation 15 min): 96.4%
remaining activity at 0.004572 µM (LOXL2; 0.25 h, pre-incubation 15 min): 99.2%
remaining activity at 0.001524 µM (LOXL2; 0.25 h, pre-incubation 15 min): 98.4%
remaining activity at 0.0005081 µM (LOXL2; 0.25 h, pre-incubation 15 min): 97.8%
remaining activity at 0.0001694 µM (LOXL2; 0.25 h, pre-incubation 15 min): 102%
remaining activity at 30 µM (LOXL2; 0.5 h, pre-incubation 30 min): -0.266%
remaining activity at 10 µM (LOXL2; 0.5 h, pre-incubation 30 min): -0.0903%
remaining activity at 3.333 µM (LOXL2; 0.5 h, pre-incubation 30 min): 4.21%
remaining activity at 1.111 µM (LOXL2; 0.5 h, pre-incubation 30 min): 17.3%
remaining activity at 0.3704 µM (LOXL2; 0.5 h, pre-incubation 30 min): 43.6%
remaining activity at 0.12346 µM (LOXL2; 0.5 h, pre-incubation 30 min): 72.5%
remaining activity at 0.04115 µM (LOXL2; 0.5 h, pre-incubation 30 min): 87.7%
remaining activity at 0.013717 µM (LOXL2; 0.5 h, pre-incubation 30 min): 93.2%
remaining activity at 0.004572 µM (LOXL2; 0.5 h, pre-incubation 30 min): 96.3%
remaining activity at 0.001524 µM (LOXL2; 0.5 h, pre-incubation 30 min): 109%
remaining activity at 0.0005081 µM (LOXL2; 0.5 h, pre-incubation 30 min): 99.4%
remaining activity at 0.0001694 µM (LOXL2; 0.5 h, pre-incubation 30 min): 103%
remaining activity at 30 µM (LOXL2; 1 h, pre-incubation 60 min): -0.646%
remaining activity at 10 µM (LOXL2; 1 h, pre-incubation 60 min): 0.037%
remaining activity at 3.333 µM (LOXL2; 1 h, pre-incubation 60 min): 1.01%
remaining activity at 1.111 µM (LOXL2; 1 h, pre-incubation 60 min): 5.82%
remaining activity at 0.3704 µM (LOXL2; 1 h, pre-incubation 60 min): 23.2%
remaining activity at 0.12346 µM (LOXL2; 1 h, pre-incubation 60 min): 62.4%
remaining activity at 0.04115 µM (LOXL2; 1 h, pre-incubation 60 min): 86.9%
remaining activity at 0.013717 µM (LOXL2; 1 h, pre-incubation 60 min): 97.3%
remaining activity at 0.004572 µM (LOXL2; 1 h, pre-incubation 60 min): 101%
remaining activity at 0.001524 µM (LOXL2; 1 h, pre-incubation 60 min): 104%
remaining activity at 0.0005081 µM (LOXL2; 1 h, pre-incubation 60 min): 104%
remaining activity at 0.0001694 µM (LOXL2; 1 h, pre-incubation 60 min): 106%
remaining activity at 30 µM (LOXL2; 2 h, pre-incubation 120 min): -0.278%
remaining activity at 10 µM (LOXL2; 2 h, pre-incubation 120 min): 1.09%
remaining activity at 3.333 µM (LOXL2; 2 h, pre-incubation 120 min): 1.27%
remaining activity at 1.111 µM (LOXL2; 2 h, pre-incubation 120 min): 2.05%
remaining activity at 0.3704 µM (LOXL2; 2 h, pre-incubation 120 min): 7.04%
remaining activity at 0.12346 µM (LOXL2; 2 h, pre-incubation 120 min): 36.3%
remaining activity at 0.04115 µM (LOXL2; 2 h, pre-incubation 120 min): 69.5%
remaining activity at 0.013717 µM (LOXL2; 2 h, pre-incubation 120 min): 87.9%
remaining activity at 0.004572 µM (LOXL2; 2 h, pre-incubation 120 min): 97.9%
remaining activity at 0.001524 µM (LOXL2; 2 h, pre-incubation 120 min): 102%
remaining activity at 0.0005081 µM (LOXL2; 2 h, pre-incubation 120 min): 102%
remaining activity at 0.0001694 µM (LOXL2; 2 h, pre-incubation 120 min): 103%
remaining activity at 30 µM (LOXL2; 4 h, pre-incubation 240 min): -0.548%
remaining activity at 10 µM (LOXL2; 4 h, pre-incubation 240 min): 0.438%
remaining activity at 3.333 µM (LOXL2; 4 h, pre-incubation 240 min): 0.0615%
remaining activity at 1.111 µM (LOXL2; 4 h, pre-incubation 240 min): 0.566%
remaining activity at 0.3704 µM (LOXL2; 4 h, pre-incubation 240 min): 1.17%
remaining activity at 0.12346 µM (LOXL2; 4 h, pre-incubation 240 min): 14.1%
remaining activity at 0.04115 µM (LOXL2; 4 h, pre-incubation 240 min): 45.6%
remaining activity at 0.013717 µM (LOXL2; 4 h, pre-incubation 240 min): 71.8%
remaining activity at 0.004572 µM (LOXL2; 4 h, pre-incubation 240 min): 91.6%
remaining activity at 0.001524 µM (LOXL2; 4 h, pre-incubation 240 min): 95.6%
remaining activity at 0.0005081 µM (LOXL2; 4 h, pre-incubation 240 min): 101%
remaining activity at 0.0001694 µM (LOXL2; 4 h, pre-incubation 240 min): 102%
time-dependent inhibition of LOXL2 specific activity (LOXL2; pre-incubation time 0–240 min): increased potency with increased pre-incubation time
recovery of lysyl oxidase family activity in the aorta, of initial activity ([1]; rats, single 30 mg kg−1 oral, 24 h after dosing): approximately 50%
Lysyl oxidase family activity in freshly excised aorta ([1]; rats, 4 h): 15.4162 and 30.1157 and 25.1081 and 16.4125 and 13.2925
Lysyl oxidase family activity in freshly excised aorta ([1]; rats, 24 h): 54.6033 and 26.1568 and 51.6931 and 36.2595 and 23.1592
Lysyl oxidase family activity in freshly excised aorta ([1]; rats, 48 h): 62.6086 and 39.9999 and 48.7392 and 69.3553 and 56.8756
Lysyl oxidase family activity in freshly excised aorta ([1]; rats, 120 h): 94.5071 and 44.5094 and 104.61 and 70.2729 and 55.285
calculated block of all lysyl oxidase family activity ([1]; single daily oral dose of 30 mg kg−1, over a 24-h period): > 70%

From publication PMC10518255, “A first-in-class pan-lysyl oxidase inhibitor impairs stromal remodeling and enhances gemcitabine response and survival in pancreatic cancer” (Nature Cancer, 2023)
